The record followed here is paper PMC9757750 (Science Advances, 2022).

The target of this assay is LegA15 (Legionella pneumophila, UniProt Q5ZSR1). The experiment in a line: biochemical.

What is called Kd is the constant that tells how readily two partners part at equilibrium. A low value points to higher affinity.

Sequence of LegA15 (Q5ZSR1 1-471): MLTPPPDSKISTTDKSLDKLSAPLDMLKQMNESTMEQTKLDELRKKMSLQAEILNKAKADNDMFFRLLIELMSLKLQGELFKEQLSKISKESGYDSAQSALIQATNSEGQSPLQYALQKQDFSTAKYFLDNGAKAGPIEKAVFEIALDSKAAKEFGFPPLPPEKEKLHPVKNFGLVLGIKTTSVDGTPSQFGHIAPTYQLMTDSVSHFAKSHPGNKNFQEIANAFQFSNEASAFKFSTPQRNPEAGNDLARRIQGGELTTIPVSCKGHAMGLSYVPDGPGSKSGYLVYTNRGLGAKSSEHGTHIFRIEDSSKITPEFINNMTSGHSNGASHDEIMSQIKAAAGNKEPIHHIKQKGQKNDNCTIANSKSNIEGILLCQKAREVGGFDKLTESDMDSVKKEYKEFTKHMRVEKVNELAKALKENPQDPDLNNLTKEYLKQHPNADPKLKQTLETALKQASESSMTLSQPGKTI

For `Nc1nc2c(ncn2[C@@H]2O[C@H](COP(=O)(O)OP(=O)(O)OP(=O)(O)O)[C@@H](O)[C@H]2O)c(=O)[nH]1` [GTP], binding was put at a Kd of 1.38 µM. In turn, `Nc1nc2c(ncn2[C@@H]2O[C@H](COP(=O)(O)OP(=O)(O)O)[C@@H](O)[C@H]2O)c(=O)[nH]1` [GDP] returned a dissociation constant (Kd) of 20.5 µM. Compared with the last compound, the Kd is about 15-fold higher.
